Source: patent US11370841B2, “Methods of treating fibroblast growth factor 19-mediated cancers and tumors” (NGM Biopharmaceuticals, Inc., priority 2016, dated 2022)

Legend:
[1] = tested on: STAT3; test: In vivo pSTAT3 activation, immunoblot of liver lysates; conditions: db/db mice, 1 mg/kg FGF19 i.p.
Protocol: In vivo pSTAT3 activation.
Immunoblotting. Cell or tissue lysates were mixed with 4×SDS sample loading buffer (50 mM Tris-Cl, pH6.8, 2.5% SDS, urea, 4% β-mercaptoethanol), heated for 10 minutes at 95° C., and separated on 4-20% SDS-polyacrylamide gels (Life Technologies) in 1×MOPS running buffer. Proteins were transferred onto PVDF membranes (GE Healthcare). Membranes were blocked in TBST buffer (20 mM Tris-Cl, pH 7.6, 137 mM NaCl, 0.1% Tween-20) containing 5% non-fat dry milk for 1 hour at room temperature, and incubated with anti-pSTAT3^Y705, anti-total STAT3, anti-pERK, anti-total ERK, or anti-β-actin antibodies in blocking buffer at 4° C. overnight. Membranes were washed in TBST extensively, and bound proteins were detected with horseradish peroxidase-conjugated goat-anti-mouse IgG or goat-anti-rabbit IgG antibodies (GE Healthcare) for 1 hour at room temperature. Signals were developed with SuperSignal West Dura extended duration substrate (Thermo Scientific), and captured with a ChemiDoc XrS+ imaging system (Bio-Rad).
To examine STAT3 activation following FGF19 treatment in vivo, 11 week old diabetic db/db mice (on BKS background) were administered with 1 mg/kg of recombinant FGF19 protein i.p., and livers were harvested after 2 hours. Phosphorylation of STAT3 at tyrosine residue 705 (pSTAT3^Y705) was evident by immunoblotting of liver lysates (FIG. 1A). […]

[2] = tested on: FGF19-mediated HCC; test: Tumorigenicity study in db/db mice (AAV-SOCS3, tofacitinib); format: in vivo
Protocol: Blood parameters. Blood was collected from tail vein in un-anesthetized animals using microvette serum gel tubes (Sarstedt) for measurements of glucose, insulin, ALT, AST, ALP, bile acids, and FGF19 concentrations. Serum samples were prepared by centrifugation at 4° C. for 10 minutes at 6000 g after clotting at room temperature for 30 minutes. For HbA1c measurements, whole blood was collected after euthanasia by cardiac puncture into EDTA-tubes and quickly inverted multiple times. HbA1c (from whole blood samples) and liver enzyme (from serum samples) levels were measured on Cobas Integra 400 Clinical Analyzer (Roche Diagnostics). Serum FGF19 level was determined by FGF19 enzyme-linked immunosorbent assays (ELISA) (Biovendor). Serum insulin was assessed with ELISA kits from ALPCO. Concentrations of total bile acids in serum were determined using a 3β-hydroxysteroid dehydrogenase method (Diazyme). All assays were performed according to the manufacturers' instructions.
Histology and immunohistochemistry. Livers were fixed in 10% neutral-buffered formalin and embedded in paraffin. 5 μm sections were deparaffinized in xylenes, rehydrated sequentially in graded ethanol (100%, 95%, 80%, 70%, 50%, 2 minutes each). Hematoxylin and eosin staining was performed using standard methods. For immunohistochemical studies, liver sections were subjected to antigen retrieval in a citrate-based Antigen Unmasking Solution (Vector Laboratories), and incubated for 30 minutes with 3% H2O2 at room temperature to block endogenous peroxidase activity. Sections were stained with primary antibodies against glutamine synthetase (Thermo Fisher), BrdU, PCNA, or STAT3 in PBS containing 10% goat serum. Biotinylated secondary antibodies, ABC-HRP reagent (Vectastain ABC kit, #PK-6100, Vector Laboratories) and di-amine-benzidine (DAB) colorimetric peroxidase substrate (#SK-4100, Vector Laboratories) were used for detection. When indicated, sections were counterstained with hematoxylin. Digital imaging microscopy was performed using a Leica DM4000 microscope equipped with DFC500 camera and a scanning platform (Leica). Images for the entire liver section were acquired by stitching 70-96 fields together using Surveyor program for morphometric analysis. Glutamine synthetase-positive tumor areas were quantified using Measure/Count/Area tool from ImagePro software.
Tumorigenicity study in db/db mice. 11 to 12 week old db/db mice received a single intravenous dose of AAV containing either FGF19 or a control gene (green fluorescent protein). Body weight and blood glucose were monitored. […] Mice were euthanized 24 weeks post-AAV administration and examined for liver tumor formation by gross appearance and histology.

[3] = tested on: primary human hepatocytes; test: In vitro pSTAT3 activation in primary human hepatocytes; format: cell-based; conditions: purified primary human hepatocytes, 50 ng/ml
Protocol: In vitro pSTAT3 activation. Primary human hepatocytes were isolated from consenting donors using a modified collagenase/pronase method (BioReclamation/IVT). Cells were diluted in attachment media (DMEM supplemented with 2 mM glutamine, 100 unit/ml penicillin, 100 unit/ml streptomycin, and 10% FBS), and cells were plated on collagen-coated 6-well plate (Becton Dickinson). Four hours later, cells were changed into William's E media containing dexamethasone/T3/insulin and cultured for 16 hours at 37° C. When indicated, 50 ng/ml FGF19 protein or 50 ng/ml human IL-6 (Peprotech) were added.
Cell extracts were prepared in 50 mM Tris-Cl, PH 7.2, 150 mM NaCl, 1% NP-40, 0.1% SDS, 0.5% sodium deoxycholate supplemented with a protease inhibitor cocktail (Roche) and phosphatase inhibitors (Sigma, phosphatase inhibitor cocktail set 2 and set 3), and protein concentrations were determined by BCA protein assay (Thermo Scientific).
Immunoblotting. […] Membranes were washed in TBST extensively, and bound proteins were detected with horseradish peroxidase-conjugated goat-anti-mouse IgG or goat-anti-rabbit IgG antibodies (GE Healthcare) for 1 hour at room temperature. […]
To investigate an in vitro direct effect of FGF19 on STAT3 activation in isolated hepatocytes, pSTAT3^Y705 levels in primary cultures of hepatocytes upon FGF19 stimulation were analyzed by western blotting. […]

[4] = tested on: FGF19-mediated HCC; test: Anti-IL-6 treatment in Mdr2-/- mice expressing AAV-FGF19; format: in vivo; conditions: prolonged expression of FGF19
Protocol: Blood parameters. […] Serum insulin was assessed with ELISA kits from ALPCO. […] All assays were performed according to the manufacturers' instructions.
Histology and immunohistochemistry. […] Hematoxylin and eosin staining was performed using standard methods. […] When indicated, sections were counterstained with hematoxylin.
Anti-IL-6 treatment in Mdr2^−/− mice. […] Anti-IL-6 treatment started 14 weeks after AAV injection. Mice were dosed with anti-mouse IL-6 antibody (Bio-X-Cell) or an isotype control antibody (Bio-X-Cell) once weekly i.p. at 10 mg/kg for a total of 10 doses. Mice were euthanized 24 weeks post-AAV administration for liver tumor assessment. When indicated, Mdr2^−/− mice injected with AAV-GFP serve as controls for evaluating serum levels of liver enzymes.

Substance: FGF19: Fibroblast growth factor 19, mature human 194 amino acid polypeptide (SEQ ID NO: 1); recombinant protein or AAV-expressed
- Phosphorylation of ERK1 and ERK2 in the liver ([1]; 2 hours): induced phosphorylation
- Phosphorylation of STAT3 at tyrosine residue 705 (pSTAT3 Y705) in liver lysates ([1]; livers harvested after 2 hours): evident
- HbA1c ([2]; AAV-expressed FGF19, in the absence or presence of SOCS3): normalized
- Blood glucose levels ([2]; AAV-expressed FGF19, irrespective of tofacitinib treatment): normalized
- STAT3 activation (pSTAT3 Y705) [3]: lack of STAT3 activation
- Liver tumor formation [4]: induced liver tumor formation
